# According to patent US4925835A, “Aziridinyl putrescine containing compositions and their uses in treating prostate cancer” (priority 1987, dated 1990):
# Legend:
# [1] = tested on: human prostate cancer cell line PC-3; experiment: cells; format: cell-based
# Method: Aziridinyl putrescine 1-(4-aminobutyl) aziridine was synthesized using the method as described by Piper, et al., J. Med. Chem. 12: 236-243 (1968). Cells of the human prostate cancer cell line PC-3 were used.
# 10^3 PC-3 human cells were plated in RPMI 1640 with 10% FCS/3 ml in 60 mm^2 petri dishes. The cell plates were incubated either with, or without difluoromethylornithine for 48 hours. This was followed by aspiration, and replacement with a medium containing either no additives, 50 uM 1-(4-aminobutyl) aziridine, 1 mM putrescine, or both 50 uM 1-(4-aminobutyl) aziridine and 1 mM putrescine. The media were aspirated after 1 hour, and replaced with a drug free medium. Incubation continued for 5 days.
# *Represents mean number of colonies ± one standard deviation of
# triplicate assay. Number in parenthesis is percent of control.
# PC-3 cells = experiment: Polyamine assays: intracellular polyamine levels by HPLC; format: cell-based, human
# Method: One h later the medium was aspirated and the cells were rinsed with cold HBSS. Three plates were treated with dilute trypsin to release the cells from the plate and provide a single cell suspension. The viability of the cells and the number of cells per plate were determined by trypan blue exclusion and counting with the aid of a hemocytometer. […] The other three plates were extracted with 0.4N perchloric acid and the polyamines were measured by fluorescence following postcolumn derivatization with o-phthalaldehyde following separation by the reverse phase ion-pair high performance liquid chromatography procedure of Wagner et al., J. Chomatogr., 227: 349-368, 1982.
# In Table 2 are listed the values for the triplicate assays of the concentrations of polyamine observed in nontreated cells, cells treated with 1-(4-aminobutyl) aziridine for 1 h, cells pretreated for 48 h with 1 mM difluoromethylornithine and then incubated in drug free medium for 1 h, or cells pretreated for 48 h with difluoromethylornithine, rinsed free of difluoromethylornithine, and then incubated with 25 μM 1-(4-aminobutyl)aziridine for 1 h. All groups had cell viabilities greater than 95% and cell numbers were 4.9±0.6 (SE), 4.9±0.7, 4.8±0.4, and 4.6±0.4×10^6 cells for the control, 1-(4-aminobutyl) aziridine, difluoromethylornithine, and difluoromethylornithine+1-(4-aminobutyl) aziridine groups, respectively. The apparent amount of 1-(4-aminobutyl) aziridine in the difluoromethylornithine-treated cells was 3.7 times that of the 1-(4-aminobutyl) aziridine-only-treated cells. No N^8 -acetylspermidine, acetylputrescine, or cadaverine was detected in any group. A peak was detected at a wavelength of 254 nm in the difluoromethylornithine treatment groups that corresponds to the retention time of decarboxylated S-adenosylmethionine.
# ^a PC-3 cells were incubated with or without 1 mM DFMO for 48 h. Cell
# were then rinsed free of DFMO and incubated for 1 h with 25 μM AZP. Th
# cells were washed free of AZP by three rinses of HBSS. With one set of
# triplicate plates, the cells were resuspended and counted by hemocytomete
# and viability was determined by trypan dye exclusion (viability > 95%).
# Another set triplicate plates was extracted with icecold perchloric acid
# and filtered and the polyamine concentrations were determined by HPLC.
# ^b Mean ± SE for a triplicate assay. Histamine is included as a […]
# normal rat prostate = experiment: In vivo antiprostatic activity, prostate wet weight; conditions: Copenhagen rats
# Method: 1-(4-aminobutyl) aziridine, difluoromethylornithine, and a combination of 1-(4-aminobutyl) aziridine and difluoromethylornithine were tested in vivo for antiprostatic activity using Copenhagen rats. The normal rat prostate is often used as a model or control for drugs which are suspected of having antiprostatic cancer activity. Sloan, et al., Cancer Chemother. Rep. 59: 185-194 (1975). 1-(4-aminobutyl) aziridine, difluoromethylornithine, and a combination of 1-(4-aminobutyl) aziridine and difluoromethylornithine were administered to twenty-eight (28) Copenhagen rats for 14 days. 1-(4-aminobutyl) aziridine was administered by an infusion mini-pump implanted intraperitoneally.
# Difluoromethylornithine was administered orally. The 1-(4-aminobutyl) aziridine was delivered at a rate of 2 mg/kg/day. A similar amount of difluoromethylornithine was administered orally on a daily basis. Before loading the infusion pump, the pH of 1-(4-aminobutyl) aziridine was adjusted to 7.5 with hydrochloric acid. The pump rate was 0.5 u./hr.
# The prostates of the twenty-eight (28) subjects were removed, freed of fat and weighed to the nearest milligram.
# [2] = PC-3, ±1 mM DFMO 48 h, then ±25 μM AZP 1 h, mean ± SE
# [3] = 14 days, AZP 2 mg/kg/day by intraperitoneal infusion mini-pump, DFMO similar amount orally
smiles,measurement,setting,value
"NCCCCN1CC1 [AZP, 1-(4-aminobutyl) aziridine]",activity at 50 µM,"[1]; Homo sapiens, PC-3, read-out: Clonogenic survivors, percent of control",36%
same,inhibition at 50 µM,"[1]; Homo sapiens, PC-3, read-out: Inhibition of proliferation of human prostate cancer cells in culture, AZP at 50 uM, from Table 1",~64%
same,Clonogenic survivors (mean number of colonies ± one standard deviation),"[1]; PC-3, 48 h with or without DFMO, then 1 h with 50 uM AZP and/or 1 mM putrescine, 5 days drug free",210 ± 30 colonies
same,Apparent amount of AZP in DFMO-treated cells relative to AZP-only-treated cells,"PC-3 cells; 25 μM AZP 1 h, 1 mM DFMO 48 h pretreatment",3.7 times
same,Polyamine levels: AZP,"PC-3 cells; PC-3, ±1 mM DFMO 48 h, then 25 μM AZP 1 h, mean ± SE",115 ± 32 pmol/10^6
same,Cell numbers at end of treatment,"PC-3 cells; PC-3, ±1 mM DFMO 48 h, then ±25 μM AZP 1 h, SE",4.9±0.7 ×10^6 cells
same,"Polyamine levels: Hist (histamine, nonpolyamine control)",PC-3 cells; [2],86 ± 25 pmol/10^6
same,Polyamine levels: NaSpm (N-acetylspermine),PC-3 cells; [2],125 ± 28 pmol/10^6
same,Polyamine levels: PUT (putrescine),PC-3 cells; [2],2520 ± 170 pmol/10^6
same,Polyamine levels: Spd (spermidine),PC-3 cells; [2],2884 ± 100 pmol/10^6
same,Polyamine levels: Spm (spermine),PC-3 cells; [2],3604 ± 323 pmol/10^6
same,Reduction of the size of the normal ventral prostate,normal rat prostate; 2 mg/kg/day over a fourteen day period,approximately 67%
same,"Animal toxicity (weight or fur loss, poor posture)","normal rat prostate; 2 mg/kg/day, 14 days",no evidence of animal toxicity
same,"Organ toxicity on examination at sacrifice (liver, spleen, intestine, kidneys)","normal rat prostate; 2 mg/kg/day, 14 days","no other organs, e.g., liver, spleen, intestine, kidneys, demonstrated any evidence of toxicity"
same,Effect on prostate size (in words),normal rat prostate; 14 days,significantly decreased the size of the normal ventral prostates
same,"Dorsal Lateral Prostate, milligram wet weight (SEM)",normal rat prostate; [3],474 ± 39 milligram
same,"Ventral Prostate, milligram wet weight (SEM)",normal rat prostate; [3],378 ± 30 milligram
